Experiment [1] concerns 15 resistant strains and their parents. The experiment is described as follows: Cross-resistance panel, asexual blood stage proliferation EC50 fold shifts (all strains). Format: cell-based, Plasmodium falciparum. Particulars: for EC50 fold-shifts in resistant lines relative to parent clones: loss of efficacy in some resistant lines. From the text: (§1) To evaluate potential overlapping activity against known antimalarial drug targets, we performed dose-response studies with each compound against our assembled set of drug-resistant lines and their corresponding parents, in an asexual blood stage proliferation assay (Table 1). Comparisons were made to the drug-sensitive strain 3D7 when a parent was unavailable (TM90C2A, W2 and Dd2). As laboratories conducted EC50 assays with different strains and protocols, all comparisons were made between assays from the same laboratory and under the same assay conditions. Compounds displaying >5-fold EC50 shifts relative to the parent or sensitive strain were flagged as having potentially non-novel targets. Average fold shifts per strain ranged from 0.82 to 2.34, with a median of 1.23 indicating there was not common resistance to any one resistant clone. No resistance patterns were observed when classifying the compounds based on chemical structure, but this was not surprising given the diversity of compounds chosen. […]
(§2) The 48-h assay was carried out in a 96-well format following standard methods using the ^3H-hypoxanthine incorporation assay. […] Radioactivity was measured using a microbeta counter. […] All assays were conducted in triplicate using three independently grown cultures, and EC50 values were determined using the XLfit add-in module for Excel (version 2.3.1) from Grafit (version 5.3.1.3), where parameter h is the assay hill slope, x is the compound concentration and y is the inhibition of growth effect. […]
(§3) Alternatively, a SYBR Green-based proliferation approach was used for the 72-h assay, as previously described. […] Following incubation, 10 × SYBR Green I (Invitrogen; supplied in 10,000 × concentration) in lysis buffer ([…], 5 mM EDTA, 0.16% Saponin wt per vol and 1.6% Triton X vol per vol) was added to the wells and the plates were incubated overnight at room temperature before plate reading. […]

Experiment [2] has as its system MMV008149-resistant clones (Dd2 parent; cytochrome bc1 G131S, Y126C, V284L). Put plainly: EC50 assay on MMV008149-resistant lines. As to conditions: Plasmodium falciparum, six MMV008149-resistant clones. Format: cell-based. As for the experimental part:
Genomic DNA (gDNA) was isolated from the Dd2 parent and six clones (two clones per resistant selection flask), and samples were prepared for whole-genome sequencing. Samples were sequenced to >60 × coverage using paired end reads and aligned to the 3D7 reference genome and variants were called with HaplotypeCaller (GATK). Comparing the nucleotide variation found in the resistant samples to the Dd2 parent clone, which had been isolated immediately before selections, we identified genomic changes that had presumably occurred during selection. Following this comparison, 19 mutations were identified: 11 SNVs and eight insertion/deletions (INDELs) (Table 2, Supplementary Data 2). INDEL mutations were comprised of intergenic (three), codon INDEL (three), intronic (one) and frame-shift (one) mutations. […] Comparing all six clones, one gene was mutated across all samples: cytochrome bc1. […]
as §3

The subject of experiment [3] is PfATP4-Mut2 (PfATP4 P412L, parent W2). The experiment is described as follows: Cross-resistance EC50 assay, PfATP4-Mut2. The format is cell-based, Plasmodium falciparum.
From the text: as §1, §2, §3

We go through 6 compounds from publication PMC4912613, “A broad analysis of resistance development in the malaria parasite” (Nature Communications, 2016).

The structures appear in SMILES notation.

As to `Cc1c(C)n(Cc2ccc(F)cc2)c2ccc(C(=O)NCc3ccco3)cc12` [MMV008149], the “EC50 fold-shifts in resistant lines relative to parent clones” value in experiment [1] was above 5 fold. Also, the EC50 in experiment [2] fell in the range of 1.67 to 10.1 µM.

Regarding `CN(C)CCCN(C)C(=O)C1Cc2cc(-c3ccccc3)ccc2N1S(=O)(=O)c1ccccc1` (stereo not shown) [MMV028895], the “EC50 fold-shift, other Dd2 clones compared with 3D7, average” value in experiment [1] (Dd2-derived clones, average) is recorded as 5.5 ×.

Consider `CC(C)c1cccc(C(NC(=O)C2Cc3ccccc3CN2C(=O)c2cccc(N3CCOCC3)c2)C2CCCC2)c1` (stereo not shown) [MMV028038], for which, in experiment [3], the “EC50 fold-shift, ATP4-Mut2 vs parent” value was 5 ×.

As to `O=C(Nc1ccsc1C(=O)NC1CCCCC1)c1ccc(F)cc1` [MMV665939], in experiment [3] (loss of efficacy), the “EC50 fold-shift, PfATP4-Mut2 compared with 3D7” value was found to be 18.9 ×.

As for `CCN(CC)S(=O)(=O)c1ccc(-c2csc(Nc3ccc(C)c(C)c3)n2)cc1` [MMV009108], the “EC50 fold-shift, ATP4-Mut2 vs parent” value in experiment [3] is recorded as 23 ×.

On to `COc1ccccc1CNC(=O)CCn1c(=O)[nH]c2ccsc2c1=O` [MMV019066], for which the “EC50 fold-shifts in resistant lines relative to parent clones” value in experiment [1] is above 5 fold.

By EC50 is commonly meant the midpoint of the concentration-response curve.
